Assay [1] relates to Streptococcus faecalis (BCM-010). The assay can be described thus: MIC by microdilution in microtiter plate, BCM-010. Conditions: Enterococcus faecalis, incubation 24 h at 35° C. In kind it is cell-based. The method, then: (§1) In order to assess the antimicrobial activity of the compounds of the present invention a method of microdilution in microtiter plate was used. The compounds were diluted in a nutritious medium and, subsequently, distributed by two-fold serial dilutions in 96 well plates. Then, plates were inoculated with a bacterial suspension. After incubation for 24 h at 35° C. the minimum inhibitory concentration (MIC) of the drug in […] was determined as the lowest concentration of compound which inhibits the growth of the bacterium. Results included in Table 1 illustrate the antimicrobial activity of some of the compounds of the present invention in comparison with thus obtained with two compounds (linezolid and eperezolid) of a known antimicrobial activity. The antimicrobial activity of the compound versus Streptococcus faecalis (BCM-010, strain designation as for SALVAT collection) Staphylococcus aureus (BCM-012, strain designation as for SALVAT collection) and Moraxella catarrhalis (BCM-015, strain designation as for SALVAT collection), respectively, is shown in the different columns.
(In broth dilution the organism is exposed to a series of concentrations in liquid medium.)

Assay [2] relates to Staphylococcus aureus (BCM-012). The assay can be described thus: MIC by microdilution in microtiter plate, BCM-012. The format is cell-based. Conditions: incubation 24 h at 35° C. On the procedure:
as §1

Each structure is given as a SMILES string. Converted amounts (≈) assume the structure as drawn.

What is called MIC is the least concentration at which growth counts as inhibited. Lower therefore signals inhibition by little substance. As for `O=Cc1ccc(OCC(=O)N2CCN(c3ccc(-c4cc(CNc5ccon5)on4)cc3F)CC2)cc1` [Example 19, 3-[3-fluoro-4-(4-formylphenyloxyacetyl)piperazin-1-ylphenyl]-5-(isoxazol-3-ylaminomethyl)isoxazole], the minimum inhibitory concentration (MIC) in assay [1] stood at 0.5 µg/mL (≈ 0.989 µM); in assay [2], 1 µg/mL (≈ 1.98 µM).

In the case of `O=C(COc1ccccn1)N1CCN(c2ccc(-c3cc(CNc4ccon4)on3)cc2F)CC1` [Example 12, 3-[3-fluoro-4-(2-pyridyloxyacetyl)piperazin-1-ylphenyl]-5-(isoxazol-3-ylaminomethyl)isoxazole], the MIC in assay [1] and in assay [2] was 2 µg/mL (≈ 4.18 µM) in each case.

For the compound `Fc1cc(-c2cc(CNc3ccon3)on2)ccc1-n1ccnc1` [Example 2, 3-(3-fluoro-4-imidazol-1-ylphenyl)-5-(isoxazol-3-ylaminomethyl)isoxazole], the figures for the MIC in assay [1] and in assay [2] were 4 µg/mL (≈ 12.3 µM) and 2 µg/mL (≈ 6.15 µM), respectively.

With `O=C(COCc1ccco1)N1CCN(c2ccc(-c3cc(CNc4ccon4)on3)cc2F)CC1` [Example 15, 3-[3-fluoro-4-(2-furylmethoxyacetyl)piperazin-1-ylphenyl]-5-(isoxazol-3-ylaminomethyl)isoxazole], the MIC turned out to be 4 µg/mL (≈ 8.31 µM) in assay [1] and 2 µg/mL (≈ 4.15 µM) in assay [2].

Consider `O=C(COc1cccnc1)N1CCN(c2ccc(-c3cc(CNc4ccon4)on3)cc2F)CC1` [Example 11, 3-[3-fluoro-4-(3-pyridyloxyacetyl)piperazin-1-ylphenyl]-5-(isoxazol-3-ylaminomethyl)isoxazole], for which the results for the MIC in assay [1] and in assay [2] were 4 µg/mL (≈ 8.36 µM) and 2 µg/mL (≈ 4.18 µM), respectively.

For `O=C(c1ccno1)N1CCN(c2ccc(-c3cc(CNc4ccon4)on3)cc2F)CC1` [Example 3], the MIC turned out to be 4 µg/mL (≈ 9.12 µM) in assay [1] and 2 µg/mL (≈ 4.56 µM) in assay [2].

Regarding `O=C(COc1ccc([N+](=O)[O-])cc1)N1CCN(c2ccc(-c3cc(CNc4ccon4)on3)cc2F)CC1` [Example 14, 3-[3-fluoro-4-(4-nitrophenyloxyaetyl)piperazin-1-ylphenyl]-5-(isoxazol-3-ylaminomethyl)isoxazole], the MIC in assay [1] was 2 µg/mL (≈ 3.83 µM); in assay [2], 1 µg/mL (≈ 1.91 µM).

Turning to `O=C(COCc1ccccn1)N1CCN(c2ccc(-c3cc(CNc4ccon4)on3)cc2F)CC1` [Example 16, 3-[3-fluoro-4-(2-pyridylmethoxyacetyl)piperazin-1-ylphenyl]-5-(isoxazol-3-ylaminomethyl)isoxazole], the MIC in assay [1] came to 4 µg/mL (≈ 8.12 µM); in assay [2], 2 µg/mL (≈ 4.06 µM).

Regarding `O=C(COc1cccc([N+](=O)[O-])c1)N1CCN(c2ccc(-c3cc(CNc4ccon4)on3)cc2F)CC1` [Example 13, 3-[3-fluoro-4-(3-nitrophenyloxyacetyl)piperazin-1-ylphenyl]-5-(isoxazol-3-ylaminomethyl)isoxazole], the MIC in assay [1] was 2 µg/mL (≈ 3.83 µM); in assay [2] it was 1 µg/mL (≈ 1.91 µM).

Take `O=C(Cn1cncn1)N1CCN(c2ccc(-c3cc(CNc4ccon4)on3)cc2F)CC1` [Example 8, 3-[3-fluoro-4-(4-(1,2,4-triazol-1-yl)acetyl)piperazin-1-ylphenyl]-5-(isoxazol-3-ylaminomethyl)isoxazole]: the MIC in assay [1] came to 4 µg/mL (≈ 8.84 µM); in assay [2], 2 µg/mL (≈ 4.42 µM).

`O=C(COc1ccccc1)N1CCN(c2ccc(-c3cc(CNc4ccon4)on3)cc2F)CC1` [Example 7, 1-(4-{2-fluoro-4-[5-(isoxazol-3-ylaminomethyl)-isoxazol-3-yl]-phenyl}piperazin-1-yl)-2-phenoxyethanone]: the MIC in assay [1] was 4 µg/mL (≈ 8.38 µM); in assay [2] it was 2 µg/mL (≈ 4.19 µM).

Consider `Cc1cc(NCc2cc(-c3ccc(-n4ccnc4)c(F)c3)no2)sn1` [Example 32, [3-(3-fluoro-4-imidazol-1-ylphenyl)isoxazol-5-ylmethyl]-(3-methylisotiazol-5-yl)amine], for which the minimum inhibitory concentration (MIC) in assay [1] and in assay [2] was 1 µg/mL (≈ 2.81 µM) each time.

Consider `N#Cc1ccc(OCC(=O)N2CCN(c3ccc(-c4cc(CNc5ccon5)on4)cc3F)CC2)cc1` [Example 17, 3-[3-fluoro-4-(4-cyanophenoxyacetyl)piperazin-1-ylphenyl]-5-(isoxazol-3-ylaminomethyl)isoxazole], for which the MIC in assay [1] and in assay [2] was 2 µg/mL (≈ 3.98 µM) each time.

For the origin of these results see patent US20050014806A1, “Substituted isoxazoles and their use as antibiotics” (priority 2001, published 2005).
